Assays:
Format in all cases: in vivo
[1] = acute toxicity in the mouse (median lethal dose); settings: in vivo; acute toxicity, mouse; read-out: dose léthale moyenne
Text: (§1) Les sels de 2,2-bis phénoxy NN-diméthyl éthylamine sont décrits comme possédant des propriétés anti-dépressives.

souris [2] = experiment: acute toxicity in the mouse (median lethal dose)
Text: as §1

[3] = reserpine-induced hypothermia test; settings: qualitative
Text: (§2) Le N-oxyde de 2,2-bis phénoxy NN-diméthyl éthylamine et ses sels possèdent les propriétés caractéristiques des autres anti-dépresseurs, sur les tests pharmacologiques classiques. Ils inhibent l'effet hypothermisant de la réserpine, et de l'apomorphine, ils augmentent la toxicité de groupe induite par injection de yohimbine et ils antagonisent le test du désespoir chez la souris.

[4] = apomorphine test (apomorphine-induced hypothermia)
Text: as §2

[5] = yohimbine-induced group toxicity
Text: as §2

souris [6] = experiment: despair test in the mouse; settings: qualitative
Text: as §2

[7] = compared with 2,2-bis phénoxy NN-diméthyl éthylamine

Compound	LD50 [1]	dose léthale moyenne (souris [2]; acute toxicity, mouse)	toxicité (souris [2]; qualitative statement)	effet hypothermisant de la réserpine [3]	action antagoniste sur le test à l'apomorphine [4, 7]	effet hypothermisant de l'apomorphine ([4]; qualitative)	action positive vis-à-vis de la toxicité de groupe à la yohimbine [5, 7]	toxicité de groupe induite par injection de yohimbine ([5]; qualitative)	test du désespoir chez la souris (souris [6])
CN(C)CC(Oc1ccccc1)Oc1ccccc1 [2,2-bis phénoxy NN-diméthyl éthylamine, reference compound]	~800 mg/kg	–	–	–	–	–	–	–	–
C[N+](C)([O-])CC(Oc1ccccc1)Oc1ccccc1 [N-oxydede 2,2-bis phénoxy NN-diméthyl éthylamine]	–	il n'a pas été possible de déterminer	très faible	inhibent	nettement plus marquées	inhibent	nettement plus marquées	augmentent	antagonisent

From patent EP0216646B1, “N,N-dimethylethyl amine oxide derivative, process for its preparation and pharmaceutical compositions obtained” (Albert ROLLAND S.A. Société dite, priority 1985, dated 1987)
